We go through 18 compounds from PubChem BioAssay (NCI).

The structures appear in SMILES notation.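 Values below derive from 48-hour exposures of cells grown in 96-well plates, with endpoints linearly interpolated between the two concentrations bracketing the appropriate inhibition level. At the TGI there is no net growth.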 Some results are limits rather than exact numbers.

Test systems include EKVX NSCLC; HCT-116 colon; MDA-MB-231 breast; HT29 colon; SF-539 CNS; RPMI-8226 leukemia; SW-620 colon.
Test in all cases: inhibition of tumour cell growth, NCI panel, 48 h

Take `N#Cc1ccc(C2Oc3ccc(Cl)cc3C=C2[N+](=O)[O-])cc1` (centres undefined): the TGI is 3.42 µM in the assay on EKVX NSCLC; 0.987 µM in the assay on HCT-116 colon; 3.63 µM with MDA-MB-231 breast; 7.89 µM with HT29 colon; 3.84 µM with SF-539 CNS; 1.25 µM in the assay on RPMI-8226 leukemia.

Consider `C[C@@]12C[C@@H](c3ccccc3O1)N1Cc3ccccc3CSC1=N2`, for which the TGI in the assay on EKVX NSCLC, in the assay with HCT-116 colon, in the assay on MDA-MB-231 breast, in the assay on HT29 colon, in the assay with SF-539 CNS and with SW-620 colon was more than 100 µM in each case. This compound yielded a TGI with RPMI-8226 leukemia of more than 100 µM.

Turning to `COc1cc2[nH]c(=O)c3cc(C)cc4c(Cl)nc(c1OC)c2c43`, the TGI in the assay with EKVX NSCLC, in the assay on HCT-116 colon, in the assay with MDA-MB-231 breast, with HT29 colon, with SF-539 CNS and in the assay on SW-620 colon was more than 100 µM each time. The same compound came in with a TGI with RPMI-8226 leukemia of more than 100 µM.

With `CN(/N=C/c1ccc(Cl)cc1)C1=NCCCCN1`, the TGI in the assay on EKVX NSCLC, with HCT-116 colon, in the assay on MDA-MB-231 breast, with HT29 colon, with SF-539 CNS and in the assay with SW-620 colon was more than 100 µM each time. In the assay with RPMI-8226 leukemia, this compound registered a TGI of more than 100 µM.

`CC(=O)N1C(Nc2cccc3nc(C)ccc23)CCN1c1ccccc1` (centres undefined): the TGI with EKVX NSCLC, in the assay with HCT-116 colon, in the assay on MDA-MB-231 breast, in the assay with HT29 colon, in the assay with SF-539 CNS and in the assay on SW-620 colon was more than 10 µM in each case. In addition, the TGI with RPMI-8226 leukemia is more than 10 µM.

On to `O=C1CC(C(COCc2ccccc2)OCc2ccccc2)CC(=O)N1` (centres undefined), for which the TGI in the assay with EKVX NSCLC, in the assay on HCT-116 colon, in the assay with MDA-MB-231 breast, in the assay with HT29 colon, in the assay on SF-539 CNS and in the assay on SW-620 colon was more than 100 µM throughout. Also, the TGI in the assay with RPMI-8226 leukemia was more than 100 µM.

Take `S=C(N/N=C(\C(=N/NC(=S)N1CCCCC1)c1ccccn1)c1ccccn1)N1CCCCC1`: the TGI with EKVX NSCLC, in the assay on HCT-116 colon, in the assay on MDA-MB-231 breast, in the assay with HT29 colon, in the assay with SF-539 CNS and in the assay on SW-620 colon was more than 100 µM throughout. This compound displayed a TGI in the assay on RPMI-8226 leukemia of more than 100 µM.

On to `Cc1cn([C@@H]2C[C@H](CO)[C@@H]2O)c(=O)[nH]c1=O`, for which the TGI in the assay on EKVX NSCLC, with HCT-116 colon, in the assay with MDA-MB-231 breast, in the assay with HT29 colon, in the assay on SF-539 CNS and in the assay with SW-620 colon was more than 100 µM in each case. In the assay on RPMI-8226 leukemia, this compound yielded a TGI of more than 100 µM.

Turning to `CCOC1NC(/N=C/c2ccc(OC)cc2)=C(C#N)C1C#N` (centres undefined), the TGI in the assay with EKVX NSCLC, in the assay with HCT-116 colon, in the assay with MDA-MB-231 breast, in the assay on HT29 colon, with SF-539 CNS and with SW-620 colon was more than 100 µM throughout. Further, the TGI in the assay on RPMI-8226 leukemia is more than 100 µM.

`OC(C1CCCCCCCCCC1)C(O)C1CCCCCCCCCC1` (centres undefined): the TGI in the assay on EKVX NSCLC, in the assay on HCT-116 colon, in the assay with MDA-MB-231 breast, with HT29 colon, in the assay on SF-539 CNS and in the assay with SW-620 colon was more than 100 µM each time. The TGI with RPMI-8226 leukemia was more than 100 µM.

Consider `O=C1O[C@H]2C3C4CCC(C4[C@@H]2I)[C@H]13` (some centres undefined), for which the TGI in the assay with EKVX NSCLC, with HCT-116 colon, in the assay with MDA-MB-231 breast, with HT29 colon, in the assay on SF-539 CNS and in the assay on SW-620 colon was more than 100 µM each time. The TGI with RPMI-8226 leukemia was more than 100 µM.

As to `CC(=O)c1ccc2c3c1O[C@H]1c4[nH]c5ccccc5c4C[C@@]4(O)[C@@H](C2)N(CC2CC2)CC[C@]314`, the TGI worked out at 45.3 µM in the assay with EKVX NSCLC; 28.9 µM in the assay on HCT-116 colon; 25.7 µM in the assay on MDA-MB-231 breast; 20 µM with HT29 colon; 29.3 µM in the assay with SF-539 CNS; 20.6 µM in the assay on SW-620 colon. In addition, the TGI with RPMI-8226 leukemia stood at 45.1 µM.

`Cc1ccc(N=C2SC(=NN(C)C)SC2=Nc2ccc(C)cc2)cc1`: the TGI in the assay on EKVX NSCLC, with HCT-116 colon, in the assay with MDA-MB-231 breast, in the assay on HT29 colon, in the assay on SF-539 CNS and with SW-620 colon was more than 100 µM each time. For the same compound, the TGI with RPMI-8226 leukemia was more than 100 µM.

With `COc1cc(O)cc(O)c1C(=O)CC(Cl)(Cl)Cl`, the TGI in the assay with EKVX NSCLC, in the assay with HCT-116 colon, in the assay with MDA-MB-231 breast, with HT29 colon, in the assay on SF-539 CNS and in the assay on SW-620 colon was more than 100 µM throughout. In the assay with RPMI-8226 leukemia, the TGI is more than 100 µM.

For `Nc1ccccc1OCCCOc1ccccc1N`, the TGI in the assay on EKVX NSCLC, with HCT-116 colon, in the assay on MDA-MB-231 breast, in the assay with HT29 colon, with SF-539 CNS and in the assay on SW-620 colon was more than 100 µM in each case. In addition, the TGI with RPMI-8226 leukemia was more than 100 µM.

Consider `COc1ccc(Cn2c3ccc([N+](=O)[O-])cc3c(=O)n2Cc2ccccn2)cc1`, for which the TGI in the assay on EKVX NSCLC, with HCT-116 colon, in the assay with MDA-MB-231 breast, in the assay on HT29 colon, with SF-539 CNS and with SW-620 colon was more than 100 µM in each case. Further, in the assay on RPMI-8226 leukemia, the TGI was more than 100 µM.

On to `CN(C)CC1CCCc2ccccc2C1=O` (centres undefined), for which the TGI was 3.4 µM in the assay with EKVX NSCLC; 3.26 µM in the assay with HCT-116 colon; 9.7 µM in the assay on MDA-MB-231 breast; 3.38 µM in the assay on HT29 colon; 10.1 µM with SF-539 CNS; 0.21 µM with RPMI-8226 leukemia.

As for `CC(C)C1=C(Cc2ccccc2)C(=O)O/C1=C\c1ccc(O)c(Cl)c1`, the TGI worked out at 30.3 µM with EKVX NSCLC; 28.8 µM in the assay with HCT-116 colon; 29.9 µM with MDA-MB-231 breast; 32.8 µM with HT29 colon; 33.2 µM in the assay on SF-539 CNS; 34.9 µM with SW-620 colon. The compound further registered a TGI with RPMI-8226 leukemia of 28.1 µM.
